Tests used:
[1] = target: MAPKAPK2 (Homo sapiens, UniProt P49137); assay: HTS ATP-utilizing enzyme assay, off-chip mobility-shift (Caliper HTS 250); assay type: biochemical; conditions: test compound 10 μM, kinase listed = active (greater than six-sigma from the mean activity of inactive compounds)
In short: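 Phosphorylation of a peptide substrate was quantified by Caliper mobility-shift separation of substrate and product after 2.5 h at 20-22 °C, with compounds tested at 10 μM. Inhibition was normalized to EDTA-quenched (100%) and DMSO (0%) controls; six-sigma thresholds flagged actives.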

[2] = target: T1, PRAK (Homo sapiens, UniProt Q8IW41); assay: as above; assay type: biochemical; conditions: test compound 10 μM, kinase listed = active (greater than six-sigma from the mean activity of inactive compounds)
T1 sequence (Q8IW41 1-473): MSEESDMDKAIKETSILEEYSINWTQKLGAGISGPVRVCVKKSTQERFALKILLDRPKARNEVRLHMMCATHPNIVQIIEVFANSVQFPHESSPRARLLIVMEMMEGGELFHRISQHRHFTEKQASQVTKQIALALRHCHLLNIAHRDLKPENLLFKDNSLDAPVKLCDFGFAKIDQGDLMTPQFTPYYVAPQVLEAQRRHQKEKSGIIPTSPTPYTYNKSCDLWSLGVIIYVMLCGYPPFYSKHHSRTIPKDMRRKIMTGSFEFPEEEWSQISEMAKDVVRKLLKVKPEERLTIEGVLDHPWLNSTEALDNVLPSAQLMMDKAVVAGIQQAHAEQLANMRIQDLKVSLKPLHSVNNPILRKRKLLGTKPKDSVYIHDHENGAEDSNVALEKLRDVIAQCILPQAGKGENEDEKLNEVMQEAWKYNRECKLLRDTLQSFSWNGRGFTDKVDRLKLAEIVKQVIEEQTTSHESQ
Text: The following procedures describe the reagent and plate preparation for a HTS of an ATP-utilizing enzyme, such as a protein kinase, run in an off-chip mobility-shift assay format. The following provides an HTS protocol for running a protein kinase HTS screen on a Caliper HTS 250 microfluidics system. The following parameters are dependent on the protein kinase used and can be determined by one skilled in the art as part of a typical assay development process. For example, the peptide substrate used can be identified from the current literature, by screening a peptide library of potential protein kinase substrates, or by other applicable means accepted in the field.
The following table provides typical screen assay parameters appropriate for a Caliper HTS 250 microfluidics system.
The reagents and buffers listed in the following table are generally applicable for developing and running an HTS screen on a human protein kinase using the Caliper HTS 250 system.
The following reagents were prepared using the previously described buffers.
A 2× Master Buffer solution was prepared by combining 200 mL of 1 M HEPES, pH 7.5, 2 mL of 10% Triton X-100, 20 mL of 10% BSA, and 778 mL of H2O.
A 2.5× Substrate Buffer solution was prepared by combining 177.408 mL of 2× Master Buffer, 0.887 mL of 1 mM peptide-X, and 176.521 mL of H2O.
A 1.55× Termination Buffer solution was prepared by combining 762.05 mL of 2× Master Buffer, 95.1 mL of 0.5 M EDTA, and 666.94 mL of H2O.
A TCB Buffer solution was prepared by combining 125 mL of 2× Master Buffer, 10 mL of 0.5 M EDTA, 6.25 mL of 4% coating reagent, 1.01 mL of 100% DMSO, and 107.74 mL H2O.
A Dye Trough solution was prepared by combining 0.5 μL of peptide-X, and 2,999.5 μL of IX Master Buffer.
A 1.06× Assay Buffer solution was prepared by combining 205.15 mL of 2× Master Buffer, and 181.92 mL of H2O.
Assays to determine the kinase inhibitory activity of compounds of the present disclosure were performed using a Caliper HTS 250 microfluidics device, Greiner U-bottom assay plates, a Multidrop for transfer of reagents, and Biomek FX (AMNCBM03) software. Initially, 2.4 μL of a 1 mM solution of a test compound in 100% DMSO was added to a well of the Greiner U-bottom plate. A single Greiner U-bottom plate having 24×16 wells could include multiple test compounds. Next, […] of 1.06× Assay Buffer was added to each well of the assay plate. Using the Biomek FX, 10 μL of 0.5 M EDTA was added by the span-8 to wells, indicated as 100% Control and 2.4 μL of 100% DMSO was added by the span-8 to wells, indicated as 0% Control. Using the Multidrop, 10 μL of 2.5× Enzyme Buffer, followed by 10 μL of 2.5× Substrate Buffer was added to each well of the assay plate. The total reaction volume in each well was 25 μL, and the concentration of the test compound was 10 μM. The assay plate was incubated for 2.5 hrs at 20° C. to 22° C. After the incubation period, using the Multidrop, 45 μL of 1.55× Termination Buffer was added to each well of the assay plate to stop the reaction. The inhibition of the ATP-utilizing enzyme, such as a particular protein kinase, was determined by measuring the ratio of the peptide substrate to phosphorylated product for each well of the assay plate using the Caliper HTS 250 system.
The use of six-sigma statistical limits represents a conservative method for declaring potential hits among targets. The six-sigma activity, as well as the mean population activity, can be different for each target enzyme. This method has an expected false positive rate, from an in-control measurement process, of one in one million.

MAPKAPK2, sequence (P49137 whole entry): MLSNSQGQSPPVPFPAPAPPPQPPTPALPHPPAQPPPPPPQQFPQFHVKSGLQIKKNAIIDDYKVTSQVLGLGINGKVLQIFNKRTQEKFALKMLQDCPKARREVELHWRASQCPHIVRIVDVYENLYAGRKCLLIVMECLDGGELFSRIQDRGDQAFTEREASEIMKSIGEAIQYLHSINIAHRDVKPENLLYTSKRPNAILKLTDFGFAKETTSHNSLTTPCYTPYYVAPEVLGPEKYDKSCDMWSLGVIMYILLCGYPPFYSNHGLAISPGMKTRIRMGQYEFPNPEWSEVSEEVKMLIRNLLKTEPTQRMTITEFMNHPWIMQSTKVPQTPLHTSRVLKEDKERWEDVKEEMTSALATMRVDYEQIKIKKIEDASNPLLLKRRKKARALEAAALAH

| Activity [1] | Activity [2] | Compound |
| --- | --- | --- |
| MAPKAPK2 | PRAK | Cc1cc(F)ccc1-c1ccc2nccc(Nc3ccc(N4CCN(C)CC4)cc3)c2c1 [6-(4-fluoro-2-methylphenyl)-N-(4-(4-methylpiperazin-1-yl)phenyl)quinolin-4-amine] |
| – | PRAK | CN(C)C1CCN(c2ccc(Nc3ccnc4ccc(-c5ccc(C#N)cc5)cc34)cc2)C1 (stereo not drawn) [4-(4-(4-(3-(dimethylamino)pyrrolidin-1-yl)phenylamino)quinolin-6-yl)benzonitrile] |
| MAPKAPK2 | PRAK | CN1CCN(c2ccc(Nc3ccnc4ccc(-c5cc(F)cc(F)c5)cc34)cc2)CC1 [6-(3,5-difluorophenyl)-N-(4-(4-methylpiperazin-1-yl)phenyl)quinolin-4-amine] |
| MAPKAPK2 | PRAK | CN1CCN(c2ccc(Nc3ccnc4ccc(-c5ccc(Cl)cc5)cc34)cc2)CC1 [6-(4-chlorophenyl)-N-(4-(4-methylpiperazin-1-yl)phenyl)quinolin-4-amine] |
| MAPKAPK2 | PRAK | CN1CCN(c2ccc(Nc3ccnc4ccc(-c5ccc([S+](C)[O-])cc5)cc34)cc2)CC1 (stereo not drawn) [N-(4-(4-methylpiperazin-1-yl)phenyl)-6-(4-(methylsulfinyl)phenyl)quinolin-4-amine] |
| MAPKAPK2 | PRAK | CN1CCN(c2ccc(Nc3ccnc4ccc(-c5c(F)cccc5F)cc34)cc2)CC1 [6-(2,6-difluorophenyl)-N-(4-(4-methylpiperazin-1-yl)phenyl)quinolin-4-amine] |
| – | PRAK | CSc1ccc(-c2ccc3nccc(Nc4ccc(N5CCN(C)CC5)cc4)c3c2)cc1 [N-(4-(4-methylpiperazin-1-yl)phenyl)-6-(4-(methylthio)phenyl)quinolin-4-amine] |
| MAPKAPK2 | PRAK | COc1ccc(C(C)C)cc1-c1ccc2nccc(Nc3ccc(N4CCN(C)CC4)cc3)c2c1 [6-(5-isopropyl-2-methoxyphenyl)-N-(4-(4-methylpiperazin-1-yl)phenyl)quinolin-4-amine] |
| – | PRAK | CN1CCN(c2ccc(Nc3ccnc4ccc(-c5cccc(C(F)(F)F)c5)cc34)cc2)CC1 [N-(4-(4-methylpiperazin-1-yl)phenyl)-6-(3-(trifluoromethyl)phenyl)quinolin-4-amine] |
| MAPKAPK2 | PRAK | CN1CCN(c2ccc(Nc3ccnc4ccc(-c5ccccc5F)cc34)cc2)CC1 [6-(2-fluorophenyl)-N-(4-(4-methylpiperazin-1-yl)phenyl)quinolin-4-amine] |
| MAPKAPK2 | PRAK | CCCN1CCN(c2ccc(Nc3ccnc4ccc(-c5ccccc5)cc34)cc2)CC1 [6-phenyl-N-(4-(4-propylpiperazin-1-yl)phenyl)quinolin-4-amine] |
| MAPKAPK2 | PRAK | CN1CCN(c2ccc(Nc3ccnc4ccc(-c5ccc(F)c(F)c5)cc34)cc2)CC1 [6-(3,4-difluorophenyl)-N-(4-(4-methylpiperazin-1-yl)phenyl)quinolin-4-amine] |
| MAPKAPK2 | PRAK | COc1ccc(OC)c(-c2ccc3nccc(Nc4ccc(N5CCN(C)CC5)cc4)c3c2)c1 [6-(2,5-dimethoxyphenyl)-N-(4-(4-methylpiperazin-1-yl)phenyl)quinolin-4-amine] |
| MAPKAPK2 | PRAK | CCOc1ccc(-c2ccc3nccc(Nc4ccc(N5CCN(C)CC5)cc4)c3c2)cc1 [6-(4-ethoxyphenyl)-N-(4-(4-methylpiperazin-1-yl)phenyl)quinolin-4-amine] |
| – | PRAK | CN1CCN(c2ccc(Nc3ccnc4ccc(-c5ccccc5)cc34)cc2)CC1 [N-(4-(4-methylpiperazin-1-yl)phenyl)-6-phenylquinolin-4-amine] |
| MAPKAPK2 | PRAK | CN1CCN(c2ccc(Nc3ccnc4ccc(-c5ccc(CO)cc5)cc34)cc2)CC1 [(4-(4-(4-(4-methylpiperazin-1-yl)phenylamino)quinolin-6-yl)phenyl)methanol] |
| MAPKAPK2 | PRAK | CCCN1CCN(c2ccc(Nc3ccnc4ccc(-c5ccc(C#N)cc5)cc34)cc2)CC1 [4-(4-(4-(4-propylpiperazin-1-yl)phenylamino)quinolin-6-yl)benzonitrile] |
| MAPKAPK2 | PRAK | CN1CCN(c2ccc(Nc3ccnc4ccc(-c5cccc(F)c5)cc34)cc2)CC1 [6-(3-fluorophenyl)-N-(4-(4-methylpiperazin-1-yl)phenyl)quinolin-4-amine] |
| MAPKAPK2 | PRAK | CCN1CCN(c2ccc(Nc3ccnc4ccc(-c5ccc(C#N)cc5)cc34)cc2)CC1 [4-(4-(4-(4-ethylpiperazin-1-yl)phenylamino)quinolin-6-yl)benzonitrile] |
| MAPKAPK2 | PRAK | CC(=O)c1ccc(-c2ccc3nccc(Nc4ccc(N5CCN(C)CC5)cc4)c3c2)s1 [1-(5-(4-(4-(4-methylpiperazin-1-yl)phenylamino)quinolin-6-yl)thiophen-2-yl)ethanone] |
| MAPKAPK2 | PRAK | COc1ccc(F)cc1-c1ccc2nccc(Nc3ccc(N4CCN(C)CC4)cc3)c2c1 [6-(5-fluoro-2-methoxyphenyl)-N-(4-(4-methylpiperazin-1-yl)phenyl)quinolin-4-amine] |
| MAPKAPK2 | PRAK | CCN1CCN(c2ccc(Nc3ccnc4ccc(-c5ccccc5)cc34)cc2)CC1 [N-(4-(4-ethylpiperazin-1-yl)phenyl)-6-phenylquinolin-4-amine] |
| MAPKAPK2 | PRAK | N#Cc1ccc(-c2ccc3nccc(Nc4ccc(N5CCN(CC(=O)O)CC5)cc4)c3c2)cc1 [2-(4-(4-(6-(4-cyanophenyl)quinolin-4-ylamino)phenyl)piperazin-1-yl)acetic acid] |
| MAPKAPK2 | PRAK | CN1CCN(c2ccc(Nc3ccnc4ccc(-c5cccc(OC(F)(F)F)c5)cc34)cc2)CC1 [N-(4-(4-methylpiperazin-1-yl)phenyl)-6-(3-(trifluoromethoxy)phenyl)quinolin-4-amine] |
| MAPKAPK2 | PRAK | CCCCc1ccc(-c2ccc3nccc(Nc4ccc(N5CCN(C)CC5)cc4)c3c2)cc1 [6-(4-butylphenyl)-N-(4-(4-methylpiperazin-1-yl)phenyl)quinolin-4-amine] |
| MAPKAPK2 | PRAK | CC(C)c1cccc(-c2ccc3nccc(Nc4ccc(N5CCN(C)CC5)cc4)c3c2)c1 [6-(3-isopropylphenyl)-N-(4-(4-methylpiperazin-1-yl)phenyl)quinolin-4-amine] |
